Results as given in patent publication US10047049B2, “Process for preparing pridopidine” (priority 2015, dated 2018).
In brackets after ≈: the same amount, converted by molar mass.

Legend:
[1] = assay type: physicochemical
Description: The purity profile of the isolated Compound 9 was better when performing the crystallization from water (Batch 2602 and Batch 2603; both had purities over 99.5%) compared to both crystallization from water/MTBE mixture (purity of 98.5%) and pure MTBE (Batch 2601; purity was 98.5%). The major improvement is removal of early eluting/polar impurities. The yield of the present method may be slightly lower because there will be a small loss of material in the mother liquor. Estimated solubility of Compound 9 in the mother liquor at 5-20° C. is 0.8-0.9% (Batch 2602 and Batch 2603). In the current method this would correspond to 4-5% of the material being lost. This is considered an acceptable loss because of the improved purity of Compound 9.

[2] = cited from earlier work

CCCN1CCC(O)(c2cccc(SC)c2)CC1 [Compound 9, 4-(3-(methylthio)phenyl)-1-propylpiperidin-4-ol]
Estimated solubility in the mother liquor [1]: 0.8-0.9%

CSc1ccccc1 [TA, thioanisole]
solubility (water) [2]: 500 µg/mL (≈ 4.03 mM)

CCCCCCBr [hexyl bromide]
solubility in water [2]: insoluble in water
